Source: patent US20230085307A1, “PYRIDAZINONE COMPOUND AND HERBICIDE” (NISSAN CHEMICAL CORPORATION, priority 2019, published 2023)

What was measured:
wild oat [1] = assay: Test Example 4: herbicidal effect by soil treatment (Table 19, symbol I); assay type: in vivo, wild oat (Avena fatua); settings: for herbicidal effect on I: wild oat: amount of applied herbicide 320 g/ha
Outline: (§1)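 Applied as a water-diluted emulsion, the compound was sprayed onto soil covering newly sown seeds. Evaluation came three weeks after application, in a greenhouse held at 25° C. to 30° C.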

barnyard grass [2] = assay: Test Example 5: herbicidal effect by foliage application, plastic box (Table 20, symbol H); assay type: in vivo, barnyard grass (Echinochloa crus-galli); settings: foliage application, evaluated three weeks after application; for H: barnyard grass, herbicidal effect (criteria 0-5): AAH 320 g/ha
Outline: (§2)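 Sow seeds spot-wise in sterilized diluvial soil; cover with ~1.5 cm soil. Grow 14 days in greenhouse, 25° C. to 30° C. Spray foliage with emulsion diluted to predetermined amount. Rate effect after 3 weeks.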

oval-leafed pondweed [3] = assay: Test Example 2: herbicidal activity, application during weed generation under submerged conditions (Table 17, symbol C); assay type: in vivo, oval-leafed pondweed (Monochoria vaginalis); settings: AAH 320 g/ha; application during weed generation, submerged conditions
Outline: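 Wagner pot, alluvial soil, 4 cm flood; mixed sowing of all species; greenhouse 25° C.–30° C. Emulsifiable formulation, water-diluted to predetermined dose, applied to paddy water at 1–2 leaf stage. Effect rated at 3 wk using the earlier test's scoring criteria.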

redroot pigweed [4] = assay: Test Example 5: herbicidal effect by foliage application, plastic box (Table 20, symbol N); assay type: in vivo, redroot pigweed (Amaranthus retroflexus); settings: foliage application, evaluated three weeks after application; for N: redroot pigweed, herbicidal effect (criteria 0-5): AAH 320 g/ha
Outline: as §2

chickweed [5] = assay: Test Example 4: herbicidal effect by soil treatment (Table 19, symbol P); assay type: in vivo, common chickweed (Stellaria media); settings: for herbicidal effect on P: chickweed: amount of applied herbicide 320 g/ha
Outline: as §1

blackgrass = assay: Test Example 5: herbicidal effect by foliage application, plastic box (Table 20, symbol J); assay type: in vivo, blackgrass (Alopecurus myosuroides); settings: foliage application, evaluated three weeks after application; for J: blackgrass, herbicidal effect (criteria 0-5): AAH 320 g/ha
Outline: as §2

barnyard grass [6] = assay: Test Example 4: herbicidal effect by soil treatment (Table 19, symbol H); assay type: in vivo, barnyard grass (Echinochloa crus-galli); settings: for herbicidal effect on H: barnyard grass: amount of applied herbicide 320 g/ha
Outline: as §1

rice flat sedge = assay: Test Example 3: herbicidal effect by foliage application, Wagner pot (Table 18, symbol E); assay type: in vivo, rice flat sedge (Cyperus iria); settings: for herbicidal effect on E: rice flat sedge: amount of applied herbicide 320 g/ha
Outline: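 Plants were sown in alluvial soil held under 0.1–0.5 cm standing water and grown 14 days in a greenhouse at 25–30 °C. An emulsifiable formulation, water-diluted to the set dose, was then sprayed onto the foliage, and effects were scored three weeks later using previously defined criteria.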

oval-leafed pondweed [7] = assay: Test Example 1: herbicidal activity, application before weed generation under submerged conditions (Table 16, symbol C); assay type: in vivo, oval-leafed pondweed (Monochoria vaginalis); settings: 320 g/ha applied herbicide
Outline: (§3)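 Submerged Wagner pots (alluvial soil, 4 cm water) sown with weed seeds and planted with 2.5-leaf rice seedlings; emulsifiable concentrate diluted in water applied to water surface on sowing day. Held in greenhouse at 25-30 °C; injury scored 0-5 by herbicidal rate after three weeks.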

velvetleaf = assay: Test Example 5: herbicidal effect by foliage application, plastic box (Table 20, symbol M); assay type: in vivo, velvetleaf (Abutilon theophrasti); settings: foliage application, evaluated three weeks after application; for M: velvetleaf, herbicidal effect (criteria 0-5): AAH 320 g/ha
Outline: as §2

green foxtail [8] = assay: Test Example 5: herbicidal effect by foliage application, plastic box (Table 20, symbol G); assay type: in vivo, green foxtail (Setaria viridis); settings: foliage application, evaluated three weeks after application; for G: green foxtail, herbicidal effect (criteria 0-5): AAH 320 g/ha
Outline: as §2

redroot pigweed [9] = assay: Test Example 4: herbicidal effect by soil treatment (Table 19, symbol N); assay type: in vivo, redroot pigweed (Amaranthus retroflexus); settings: for herbicidal effect on N: redroot pigweed: amount of applied herbicide 320 g/ha
Outline: as §1

chickweed [10] = assay: Test Example 5: herbicidal effect by foliage application, plastic box (Table 20, symbol P); assay type: in vivo, common chickweed (Stellaria media); settings: foliage application, evaluated three weeks after application; for P: chickweed, herbicidal effect (criteria 0-5): AAH 320 g/ha
Outline: as §2

green foxtail [11] = assay: Test Example 4: herbicidal effect by soil treatment (Table 19, symbol G); assay type: in vivo, green foxtail (Setaria viridis); settings: for herbicidal effect on G: green foxtail: amount of applied herbicide 320 g/ha
Outline: as §1

wild oat [12] = assay: Test Example 5: herbicidal effect by foliage application, plastic box (Table 20, symbol I); assay type: in vivo, wild oat (Avena fatua); settings: foliage application, evaluated three weeks after application; for I: wild oat, herbicidal effect (criteria 0-5): AAH 320 g/ha
Outline: as §2

Japanese bulrush = assay: Test Example 1: herbicidal activity, application before weed generation under submerged conditions (Table 16, symbol B); assay type: in vivo, Japanese bulrush (Schoenoplectus juncoides); settings: 320 g/ha applied herbicide
Outline: as §3

Structure (SMILES) | herbicidal effect on I: wild oat (wild oat [1]) | H: barnyard grass, herbicidal effect (criteria 0-5) (barnyard grass [2]) | herbicidal effect rating, C: oval-leafed pondweed (oval-leafed pondweed [3]) | N: redroot pigweed, herbicidal effect (criteria 0-5) (redroot pigweed [4]) | herbicidal effect on P: chickweed (chickweed [5]) | J: blackgrass, herbicidal effect (criteria 0-5) (blackgrass) | herbicidal effect on H: barnyard grass (barnyard grass [6]) | herbicidal effect on E: rice flat sedge (rice flat sedge) | Herbicidal effect on C: oval-leafed pondweed (grade 0-5) (oval-leafed pondweed [7]) | M: velvetleaf, herbicidal effect (criteria 0-5) (velvetleaf) | G: green foxtail, herbicidal effect (criteria 0-5) (green foxtail [8]) | herbicidal effect on N: redroot pigweed (redroot pigweed [9]) | P: chickweed, herbicidal effect (criteria 0-5) (chickweed [10]) | herbicidal effect on G: green foxtail (green foxtail [11]) | I: wild oat, herbicidal effect (criteria 0-5) (wild oat [12]) | Herbicidal effect on B: Japanese bulrush (grade 0-5) (Japanese bulrush) | other results
Cc1ccccc1C(=O)Oc1c(C)nn(C)c(=O)c1-c1c(-c2ccc(OC(F)F)cc2)sc2ccc(F)cc12 [2-285] | 0 (Herbicidal rate of 5% or less (almost no effect)) | 4 (Herbicidal rate of 70% or more and less than 90%) | 0 (Herbicidal rate of 5% or less (almost no effect)) | 5 (Herbicidal rate of 90% or more (almost completely withered)) | 3 (Herbicidal rate of 40% or more and less than 70%) | 4 (Herbicidal rate of 70% or more and less than 90%) | 0 (Herbicidal rate of 5% or less (almost no effect)) | 5 (Herbicidal rate of 90% or more (almost completely withered)) | 0 (Herbicidal rate of 5% or less (almost no effect)) | 5 (Herbicidal rate of 90% or more (almost completely withered)) | 3 (Herbicidal rate of 40% or more and less than 70%) | 0 (Herbicidal rate of 5% or less (almost no effect)) | 5 (Herbicidal rate of 90% or more (almost completely withered)) | 0 (Herbicidal rate of 5% or less (almost no effect)) | 1 (Herbicidal rate of 5% or more and less than 20%) | 3 (Herbicidal rate of 40% or more and less than 70%) | –
CCCC(=O)Oc1c(C)nn(C)c(=O)c1-c1c(-c2cccc(OCC(C)C)c2)sc2ccc(F)cc12 [2-222] | 0 (Herbicidal rate of 5% or less (almost no effect)) | – | 3 (Herbicidal rate of 40% or more and less than 70%) | – | 2 (Herbicidal rate of 20% or more and less than 40%) | – | 5 (Herbicidal rate of 90% or more (almost completely withered)) | 4 (Herbicidal rate of 70% or more and less than 90%) | 4 (Herbicidal rate of 70% or more and less than 90%) | – | – | 5 (Herbicidal rate of 90% or more (almost completely withered)) | – | 2 (Herbicidal rate of 20% or more and less than 40%) | – | 4 (Herbicidal rate of 70% or more and less than 90%) | herbicidal effect on H: barnyard grass (criteria 0-5) (barnyard grass [2]; 320 g/ha): 5 (Herbicidal rate of 90% or more (almost completely withered)); herbicidal effect on N: redroot pigweed (criteria 0-5) (redroot pigweed [4]; 320 g/ha): 5 (Herbicidal rate of 90% or more (almost completely withered)); herbicidal effect on J: blackgrass (criteria 0-5) (blackgrass; 320 g/ha): 4 (Herbicidal rate of 70% or more and less than 90%); herbicidal effect on M: velvetleaf (criteria 0-5) (velvetleaf; 320 g/ha): 5 (Herbicidal rate of 90% or more (almost completely withered)); herbicidal effect on G: green foxtail (criteria 0-5) (green foxtail [8]; 320 g/ha): 5 (Herbicidal rate of 90% or more (almost completely withered)); herbicidal effect on P: chickweed (criteria 0-5) (chickweed [10]; 320 g/ha): 5 (Herbicidal rate of 90% or more (almost completely withered)); herbicidal effect on I: wild oat (criteria 0-5) (wild oat [12]; 320 g/ha): 3 (Herbicidal rate of 40% or more and less than 70%)
COc1ccc(-c2sc3ccc(F)cc3c2-c2c(O)c(C)nn(C)c2=O)cc1OC [2-088] | – | – | 2 (Herbicidal rate of 20% or more and less than 40%) | – | – | – | – | – | 0 (Herbicidal rate of 5% or less (almost no effect)) | – | – | – | – | – | – | 2 (Herbicidal rate of 20% or more and less than 40%) | herbicidal effect rating, I: wild oat (wild oat [1]; 320 g/ha): 0 (Herbicidal rate of 5% or less (almost no effect)); herbicidal effect on H: barnyard grass (barnyard grass [2]; 320 g/ha): 3 (Herbicidal rate of 40% or more and less than 70%); herbicidal effect on N: redroot pigweed (redroot pigweed [4]; 320 g/ha): 5 (Herbicidal rate of 90% or more (almost completely withered)); herbicidal effect rating, P: chickweed (chickweed [5]; 320 g/ha): 2 (Herbicidal rate of 20% or more and less than 40%); herbicidal effect on J: blackgrass (blackgrass; 320 g/ha): 0 (Herbicidal rate of 5% or less (almost no effect)); herbicidal effect rating, H: barnyard grass (barnyard grass [6]; 320 g/ha): 4 (Herbicidal rate of 70% or more and less than 90%); herbicidal effect on E (rice flat sedge), rating 0-5 (rice flat sedge; 320 g/ha): 5 (Herbicidal rate of 90% or more (almost completely withered)); herbicidal effect on M: velvetleaf (velvetleaf; 320 g/ha): 5 (Herbicidal rate of 90% or more (almost completely withered)); herbicidal effect on G: green foxtail (green foxtail [8]; 320 g/ha): 5 (Herbicidal rate of 90% or more (almost completely withered)); herbicidal effect rating, N: redroot pigweed (redroot pigweed [9]; 320 g/ha): 4 (Herbicidal rate of 70% or more and less than 90%); herbicidal effect on P: chickweed (chickweed [10]; 320 g/ha): 5 (Herbicidal rate of 90% or more (almost completely withered)); herbicidal effect rating, G: green foxtail (green foxtail [11]; 320 g/ha): 3 (Herbicidal rate of 40% or more and less than 70%); herbicidal effect on I: wild oat (wild oat [12]; 320 g/ha): 0 (Herbicidal rate of 5% or less (almost no effect))
C#CCSCc1ccc(-c2sc3ccc(F)cc3c2-c2c(O)c(C)nn(C)c2=O)cc1 [2-325] | 0 (Herbicidal rate of 5% or less (almost no effect)) | 5 (Herbicidal rate of 90% or more (almost completely withered)) | 0 (Herbicidal rate of 5% or less (almost no effect)) | 5 (Herbicidal rate of 90% or more (almost completely withered)) | 0 (Herbicidal rate of 5% or less (almost no effect)) | 4 (Herbicidal rate of 70% or more and less than 90%) | 3 (Herbicidal rate of 40% or more and less than 70%) | 5 (Herbicidal rate of 90% or more (almost completely withered)) | 0 (Herbicidal rate of 5% or less (almost no effect)) | 5 (Herbicidal rate of 90% or more (almost completely withered)) | 5 (Herbicidal rate of 90% or more (almost completely withered)) | 4 (Herbicidal rate of 70% or more and less than 90%) | 5 (Herbicidal rate of 90% or more (almost completely withered)) | 2 (Herbicidal rate of 20% or more and less than 40%) | 4 (Herbicidal rate of 70% or more and less than 90%) | 2 (Herbicidal rate of 20% or more and less than 40%) | –
